# In patent publication US20080306096A1, “Quinazoline Derivatives, Process for Their Preparation and Their Use as Anti-Cancer Agents” (ASTRAZENECA AB, priority 2005, published 2008):
# Biological target: T1, human recombinant, purified wild type His-B-Raf protein kinase (Homo sapiens, UniProt P15056)
# T1 construct: His
# Experiment: B-Raf In Vitro ELISA Assay
# Type: biochemical
# Details: phosphorylation of MEK1; 2.5 nM B-Raf, 0.15 μM MEK1, 10 μM ATP; 1 hour preincubation at 25° C.
# Description: B-Raf In Vitro ELISA Assay
# Activity of human recombinant, purified wild type His-B-Raf protein kinase was determined in vitro using an enzyme-linked immunosorbent assay (ELISA) assay format, which measures phosphorylation of the B-Raf substrate, human recombinant, purified His-derived (detagged) MEK1. The reaction utilized 2.5 nM B-Raf, 0.15 μM MEK1 and 10 μM adenosine triphosphate (ATP) in 40 mM N-(2-hydroxyethyl)piperazine-N′-(2-ethanesulfonic acid hemisodium salt (HEPES), 5 mM 1,4-dithio-DL-threitol (DTT), 10 mM MgCl2, 1 mM ethylenediaminetetraacetic acid (EDTA) and 0.2 M NaCl (1×HEPES buffer), with or without compound at various concentrations, in a total reaction volume of 25 μl in 384 well plates. B-Raf and compound were preincubated in 1×HEPES buffer for 1 hour at 25° C. Reactions were initiated with addition of MEK1 and ATP in 1×HEPES buffer and incubated at 25° C. for 50 minutes and reactions stopped by addition of 10 μl 175 mM EDTA (final concentration 50 mM) in 1×HEPES buffer. 5 μl of the assay mix was then diluted 1:20 into 50 mM EDTA in 1×HEPES buffer, transferred to 384 well black high protein binding plates and incubated overnight at 4° C. Plates were washed in tris buffered saline containing 0.1% 5 Tween20 (TBST), blocked with 50 μl Superblock (Pierce) for 1 hour at 25° C., washed in TBST, incubated with 50 μl rabbit polyclonal anti-phospho-MEK antibody (Cell Signaling) diluted 1:1000 in TBS for 2 hours at 25° C., washed with TBST, incubated with 50 μl goat anti-rabbit horseradish peroxidase-linked antibody (Cell Signaling) diluted 1:2000 in TBS for 1 hour at 25° C. and washed with TBST. 50 μl of fluorogenic peroxidase substrate (Quantablu 10-Pierce) was added and following incubation for 45-60 minutes, 50 μl QuantabluSTOP (Pierce) was added. Blue fluorescent product was detected at excitation 325 and emission 420 using a TECAN Ultra plate reader. Data was graphed and IC50s calculated using Excel Fit (Microsoft).
# T1 sequence (P15056 whole entry): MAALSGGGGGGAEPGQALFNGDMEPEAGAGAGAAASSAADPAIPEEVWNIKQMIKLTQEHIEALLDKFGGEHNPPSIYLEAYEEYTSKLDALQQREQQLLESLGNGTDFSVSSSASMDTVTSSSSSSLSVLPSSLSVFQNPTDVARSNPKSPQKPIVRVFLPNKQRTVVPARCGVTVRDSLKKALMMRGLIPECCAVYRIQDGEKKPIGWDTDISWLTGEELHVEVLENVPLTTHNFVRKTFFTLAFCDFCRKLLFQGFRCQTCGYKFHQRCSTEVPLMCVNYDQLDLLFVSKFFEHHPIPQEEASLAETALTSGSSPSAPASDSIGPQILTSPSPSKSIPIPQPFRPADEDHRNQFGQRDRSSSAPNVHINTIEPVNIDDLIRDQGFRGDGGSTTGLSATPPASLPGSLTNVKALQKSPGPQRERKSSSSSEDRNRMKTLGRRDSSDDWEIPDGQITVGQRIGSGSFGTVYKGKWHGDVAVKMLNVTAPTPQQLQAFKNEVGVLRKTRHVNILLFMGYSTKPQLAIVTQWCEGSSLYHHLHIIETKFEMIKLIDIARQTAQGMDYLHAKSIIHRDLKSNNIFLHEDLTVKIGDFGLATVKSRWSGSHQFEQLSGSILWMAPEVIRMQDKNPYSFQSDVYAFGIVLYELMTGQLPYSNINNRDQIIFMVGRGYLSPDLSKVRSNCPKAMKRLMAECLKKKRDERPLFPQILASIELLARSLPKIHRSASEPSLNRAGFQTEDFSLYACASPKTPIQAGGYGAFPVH
row,IC50 [nM],SMILES
1,1100,"COc1cc2c(Nc3cc(NC(=O)c4cccc(C(C)(C)C#N)c4)ccc3C)ncnc2cc1OCc1ccccc1 [Example 5, N-(3-{[7-(Benzyloxy)-6-methoxyquinazolin-4-yl]amino}-4-methylphenyl)-3-(1-cyano-1-methylethyl)benzamide]"
2,193,"COc1cc2ncnc(Nc3cc(NC(=O)c4cccc(C5(C#N)CCC5)c4)ccc3C)c2cc1OC [Example 7, 3-(1-Cyanocyclobutyl)-N-{3-[(6,7-dimethoxyquinazolin-4-yl)amino]-4-methylphenyl}benzamide]"
3,370,"COc1cc2ncnc(Nc3cc(NC(=O)c4cc(C(F)(F)F)ccc4F)ccc3C)c2cc1OC [Example 15, N-{3-[(6,7-Dimethoxyquinazolin-4-yl)amino]-4-methylphenyl}-2-fluoro-5-(trifluoromethyl)benzamide]"
